Experimental data reported in patent US20150073002A1, “COMBINATION” (GlaxoSmithKline LLC, priority 2010, published 2015).
Like-named read-outs stand apart in the source and are kept apart here.

What was measured:
HCC1419 = experiment: Cell growth inhibition assay (Cell Titer Glo), HCC1419; assay type: cell-based; conditions: Homo sapiens, 72 h; HCC1419, 3 days, single agent; read-out: Single Agent IC50 (μM), mean ± STD
Experimental: (§1) Human breast tumor cell lines BT474, HCC1419, HCC1954, JIMT1, MDA-MB-361, SK-BR-3 and UACC893 were cultured in RPMI 1640 medium containing 10% FBS. BT-474-J4, a breast cancer cell line acquired resistant to Compound A was cultured in RPMI 1640 medium containing 10% FBS and 1 μM of Compound A. KPL4 breast cancer line was cultured in DMEM containing 5% FBS. All lines were kept in a humidified incubator at 37° C. in 95% air and 5% CO2. JIMT-1 is a cell line established from a tumor of a patient with trastuzumab-resistant breast cancer. BT-474-J4 is a single cell clone derived from a culture of BT-474 cells that were selected to grow in Compound A to a concentration of 3 μM.
(§2) All cells were cultured for a minimum of 72 hours prior to cell plating. […] ATP levels were determined by adding Cell Titer Glo® (Promega) according to the manufacturer's protocol. Briefly, Cell Titer Glo® was added to each plate, incubated for 20 minutes then the luminescent signal was read on a SpectraMax L plate reader with a 0.5 sec integration time.
(§3) Inhibition of cell growth was estimated after treatment with compound or a combination of compounds for three days and comparing the signal to cells treated with vehicle (DMSO). Cell growth was calculated relative to vehicle (DMSO) treated control wells. […]

SK-BR-3 = experiment: Cell growth inhibition assay (Cell Titer Glo), SK-BR-3; assay type: cell-based; conditions: Homo sapiens, 72 h; SK-BR-3, 3 days, single agent; read-out: Single Agent IC50 (μM), mean ± STD
Experimental: as §1, §2, §3

BT-474 = experiment: Cell growth inhibition assay (Cell Titer Glo), BT-474; assay type: cell-based; conditions: Homo sapiens, 72 h; BT-474, 3 days, single agent; read-out: Single Agent IC50 (μM), mean ± STD
Experimental: as §1, §2, §3

KPL4 = experiment: Cell growth inhibition assay (Cell Titer Glo), KPL4; assay type: cell-based; conditions: Homo sapiens, 72 h; KPL4, 3 days, single agent; read-out: Single Agent IC50 (μM), mean ± STD
Experimental: as §1, §2, §3

UACC893 = experiment: Cell growth inhibition assay (Cell Titer Glo), UACC893; assay type: cell-based; conditions: Homo sapiens, UACC-893, 72 h; UACC893, 3 days, single agent; read-out: Single Agent IC50 (μM), mean ± STD
Experimental: as §1, §2, §3

HCC1954 = experiment: Cell growth inhibition assay (Cell Titer Glo), HCC1954; assay type: cell-based; conditions: Homo sapiens, 72 h; HCC1954, 3 days, single agent; read-out: Single Agent IC50 (μM), mean ± STD
Experimental: as §1, §2, §3

BT-474-J4 = experiment: Cell growth inhibition assay (Cell Titer Glo), BT-474-J4; assay type: cell-based, human; conditions: BT-474-J4, 3 days, single agent, read-out: Single Agent IC50 (μM), mean ± STD
Experimental: as §1
(§4) All cells were cultured for a minimum of 72 hours prior to cell plating. Cells were assayed in a 96-well tissue culture plate (NUNC 136102) of RPMI medium containing 10% FBS for all cells at 2,000 cells per well except KPL4, which were plated in DMEM containing 5% FBS at 500 cells per well. Approximately 24 hours after plating, cells were exposed to ten, two-fold or three-fold serial dilutions of compound or the combination of the two agents at a constant molar to molar ratio of 1:1 Compound A to Compound B in RPMI media containing 10% FBS or DMEM containing 5% FBS for KPL4. Cells were incubated in the presence of compounds for 3 days. ATP levels were determined by adding Cell Titer Glo® (Promega) according to the manufacturer's protocol. Briefly, Cell Titer Glo® was added to each plate, incubated for 20 minutes then the luminescent signal was read on a SpectraMax L plate reader with a 0.5 sec integration time.
as §3

MDA-MB-361 = experiment: Cell growth inhibition assay (Cell Titer Glo), MDA-MB-361; assay type: cell-based, human; conditions: MDA-MB-361, 3 days, single agent, read-out: Single Agent IC50 (μM), mean ± STD
Experimental: as §1
All cells were cultured for a minimum of 72 hours prior to cell plating. Cells were assayed in a 96-well tissue culture plate (NUNC 136102) of RPMI medium containing 10% FBS for all cells at 2,000 cells per well except KPL4, which were plated in DMEM containing 5% FBS at 500 cells per well. […] ATP levels were determined by adding Cell Titer Glo® (Promega) according to the manufacturer's protocol. Briefly, Cell Titer Glo® was added to each plate, incubated for 20 minutes then the luminescent signal was read on a SpectraMax L plate reader with a 0.5 sec integration time.
as §3
(§5) Combination effects on potency were evaluated using Combination Index (CI) which was calculated with the back-interpolated IC50 values and the mutually non-exclusive equation derived by Chou and Talalay (Chou T C, Talalay P. Quantitative analysis of dose-effect relationships: the combined effects of multiple drugs or enzyme inhibitors. Adv Enzyme Regul 1984; 22:27-55): […]

JIMT-1 = experiment: Cell growth inhibition assay (Cell Titer Glo), JIMT-1; assay type: cell-based, human; conditions: JIMT-1, 3 days, single agent, read-out: Single Agent IC50 (μM), mean ± STD
Experimental: as §1, §4, §3, §5
(§6) The combination effects on the response scale were quantified by Excess Over Highest Single Agent (EOHSA) [Liu L, Shi H, Liu Y, Anderson A, Peterson J, Greger J, Martin A M, Gilmer T M. Synergistic Effects of Foretinib with HER-Targeted Agents in MET and HER1- or HER2-Coactivated Tumor Cells. […] For single agent and combination treatments, cells were exposed to compounds at a fixed-dose-ratio, and dose response curves were fit to the experimental data and analyzed using regression models described above. […]

[1] = test system: HCC1419, SK-BR-3 and BT474 lines; experiment: Cell growth inhibition, text summary over three lines; assay type: cell-based; conditions: Homo sapiens, 72 h; over HCC1419, SK-BR-3 and BT474 lines, 3 days; read-out: IC50 as a single agent
Experimental: as §1, §4, §3, §5, §6

[2] = test system: KPL-4, UACC893 and HCC1954 lines; experiment: as above; assay type: cell-based; conditions: Homo sapiens, 72 h; over KPL-4, UACC893 and HCC1954 lines, 3 days; read-out: IC50 as a single agent
Experimental: as §1, §4, §3, §5, §6

BT474-J4, and MDA-MB-361 = experiment: Cell growth inhibition, text summary over two lines; assay type: cell-based; conditions: Homo sapiens, 72 h; over BT474-J4 and MDA-MB-361 lines, 3 days; read-out: IC50 as a single agent
Experimental: All cells were cultured for a minimum of 72 hours prior to cell plating. […] Cells were incubated in the presence of compounds for 3 days. ATP levels were determined by adding Cell Titer Glo® (Promega) according to the manufacturer's protocol.
Cell growth was calculated relative to vehicle (DMSO) treated control wells.
In general, a CI value <0.9, between 0.9 and 1.1, or >1.1 indicates synergy, additivity and antagonism, respectively. In general, the smaller the CI number, the greater is the strength of synergy.

BT474 = experiment: Cell apoptosis induction, caspase-3/7 activation, BT474; assay type: cell-based, human; conditions: BT474, 24 hours
Experimental: as §1
(§7) For investigation of the induction of apoptosis, cells were plated at 5,000 cells per well in a 96-well tissue culture plate and allowed to attach for approximately 24 hours. Cells were exposed to ten, two-fold or three-fold serial dilutions of compound or the combination of the two agents at a constant molar to molar ratio of 10:1 Compound A to Compound B in RPMI media containing 10% FBS or DMEM containing 5% FBS for KPL4. Twenty-four hours after compound treatment, caspase 3/7 activity was determined with the Caspase Glo™ 3/7 (Promega, cat G8093) according to the instructions provided by the manufacturer.

KPL-4 = experiment: Cell apoptosis induction, caspase-3/7 activation, KPL-4; assay type: cell-based, human
Experimental: as §1, §7

BT474-J4 = experiment: Cell apoptosis induction, caspase-3/7 activation, BT474-J4; assay type: cell-based, human; conditions: BT474-J4, 24 hours
Experimental: as §1, §7

IC50 (HCC1419)	IC50 (SK-BR-3)	IC50 (BT-474)	IC50 (HCC1954)	IC50 (BT-474-J4; Homo sapiens, 72 h)	IC50 (MDA-MB-361; Homo sapiens, MDA-MB-361, 72 h)	IC50 [1]	IC50 [2]	SMILES	IC50 (KPL4)	IC50 (UACC893)	IC50 (JIMT-1; Homo sapiens, JIMT-1, 72 h)	IC50 (JIMT-1)	also measured
0.077 ± 0.017 µM	0.105 ± 0.039 µM	0.134 ± 0.049 µM	1.73 ± 0.165 µM	9.23 ± 3.83 µM	> 10 µM	≤ 0.134 µM	0.9 to 1.7 µM	CS(=O)(=O)CCNCc1ccc(-c2ccc3ncnc(Nc4ccc(OCc5cccc(F)c5)c(Cl)c4)c3c2)o1 [Compound A, N-{3-Chloro-4-[(3-fluorobenzyl)oxy]phenyl}-6-[5-({[2-(methanesulphonyl)ethyl]amino}methyl)-2-furyl]-4-quinazolinamine, reference compound]	0.86 ± 0.039 µM	1.12 ± 0.15 µM	≥ 6.8 µM	> 10 µM	IC50 (BT474-J4, and MDA-MB-361): ≥ 9.2 µM; caspase 3/7 activity (BT474; compound alone, dose response): increased caspase 3/7 activity in a dose dependent manner; caspase 3/7 activity (KPL-4; KPL4, 24 hours, compound alone at 10 μM): slight increase in caspase 3/7 activity; caspase 3/7 activity (BT474-J4; compound alone at 10 μM): slight increase in caspase 3/7 activity
2.62 ± 0.548 µM	4.19 ± 1.58 µM	3.3 ± 1.1 µM	3.67 ± 2.97 µM	0.5 µM	0.7 µM	≥ 2.6 µM	0.5 to 3.7 µM	Cn1ncc(Cl)c1-c1cc(C(=O)N[C@H](CN)Cc2cccc(F)c2)sc1Cl [Compound B, N-{(1S)-2-amino-1-[(3-fluorophenyl)methyl]ethyl}-5-chloro-4-(4-chloro-1-methyl-1H-pyrazol-5-yl)-2-thiophenecarboxamide]	0.113 ± 0.012 µM	0.505 ± 0.303 µM	≥ 6.8 µM	6.81 ± 2.13 µM	IC50 (BT-474-J4): 0.67 ± 0.026 µM; IC50 (MDA-MB-361): 0.758 ± 0.074 µM; caspase 3/7 activity (BT474; compound alone at 1 μM): slightly increased caspase 3/7 activity; caspase 3/7 activity (KPL-4; KPL-4, 24 hours, compound alone at 1 μM): but not in the KPL-4 line; caspase 3/7 activity (BT474-J4; compound alone at 1 μM): slightly increased caspase 3/7 activity
